From patent US9260473B2, “Bivalent multifunctional ligands targeting Aβ oligomers as treatment for Alzheimer's disease” (Virginia Commonwealth University, priority 2010, dated 2016)

Experiments:
MC65 cells = experiment: Cytotoxicity assay in MC65 cells (MTS, +TC/−TC); assay type: cell-based, human
Text: Protective effects of 14 on AβOs-induced cytotoxicity in MC65 cells and differentiated human neuroblastoma SH-SY5Y cells. […] To further verify whether 14 can protect cells from extracellular AβOs-induced cytotoxicity, all trans-retinoic acid differentiated human SH-SY5Y cells were employed. […] This may further indicate that while both 1 and 14 can bind to AβOs, CM/LR anchorage of 14 can increase its accessibility to intracellular target AβOs. Since CM/LR are crucial for many aspects of cell signaling and functions, 14 was further evaluated for its potential cytotoxicity in mouse spleen and natural killer (NK) cells.
Cytotoxicity assay in MC65 cells. MC65 cells were seeded in 96-well plates (4×10^4 cells/well) at 37° C., 5% CO2 for 24 hrs. The medium was removed and washed with PBS twice. Opti-MEM and test compounds were added under +TC and −TC conditions. The plates were incubated at 37° C., 5% CO2 for 72 hrs, then 20 uL CellTiter 96 AQueous One Solution (Promega, Madison, Wis.) were added to each well and the plates were incubated at 37° C., 5% CO2 for 2-4 hrs. The plates were read at 490 nm using FlexStation III plate reader (Molecular Devices). The blank with only test compounds in Opti-MEM was set up as background control for all of the tested concentrations. Each data point was averaged from six replicates and the experiments were independently repeated at least three times.

AβOs [1] = experiment: Immunocytochemistry assay of AβOs in MC65 cells (A11 antibody); assay type: cell-based, human; details: 10 μM, 24 hrs after removal of TC
Procedure: MC65 cells were treated with the indicated compounds (10 μM) immediately after the removal of TC. After 24 hrs, the cells were fixed and immunofluorescently stained for AβOs, CM/LR, and nucleus and imaged with a Leica TCS-SP2 AOBS confocal laser scanning microscope. Five areas were examined.
Immunocytochemistry assay. MC65 cells were plated onto Lab-Tee chamber slides (1×10^4 cells/well). After 24 hrs incubation at 37° C. and 5% CO2, Opti-MEM was added (with or without TC) and followed by test compounds. MC65 cells were incubated for 24 hrs. MC65 cells were rinsed 3× with PBS and incubated with Alexa 488-conjugated CTX-B (10 ug/mL) for 15 min on ice. After rinsing once with ice-cold PBS, cells were fixed for 30 min with 4% paraformaldehyde. MC65 cells were permeabilized for 30 min with 0.1% Triton X 100. Then MC65 cells were stained with A11 rabbit antibody followed by anti-rabbit Alexa 568 (1:500). Finally MC65 cells were treated with DAPI (5 ug/mL) and mounted with Vectashield Mounting Media. Cell fluorescence was analyzed by a Leica TCS-SP2 AOBS confocal laser scanning microscope equipped with blue diode, Argon, and 3 HeNe (lasers as well as a spectrophotometer based detection system with variable detector windows) using excitation lines at 355 nm, 488 nm, and 568 nm for DAPI, Alexa 488-conjugated CTX-B, and Alexa Fluor 568 donkey anti-rabbit IgG. […]

Aβ42 = target: T1, Aβ42 (Homo sapiens, UniProt P05067); experiment: Aβ42 oligomerization inhibition assay (Western blot); assay type: biochemical; details: Aβ42 5 μM, compound 20 μM, 4 hrs at 37° C.
T1 construct: Aβ42 was obtained from American Peptide, Inc. (Sunnyvale, Calif.); purchased American Peptide, Inc. (Sunnyvale, Calif.)
T1 sequence (P05067 672-713 limits assumed): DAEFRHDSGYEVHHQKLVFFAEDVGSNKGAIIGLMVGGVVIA
Procedure: In order to confirm 14 can bind to AβOs, the inhibition of Aβ42 oligomerization was performed and assessed using Western blot analysis as described in literature^29 in order to investigate binding interactions of 14 with Aβ42 and the CM/LR of MC65 cells. Briefly, Aβ42 (5 μM) was incubated with or without compounds (20 μM), then samples were analyzed by Western blot using 6E10 antibody.
Aβ42 oligomerization inhibition assay. An aliquot of Aβ42 (0.045 mg) was dissolved in 20 μL of DMSO and diluted in Ham's F-12 media without phenol red (Caisson's Laboratory, Inc., Utah). […] After incubation, the samples (50 μL) were spun down at 14,000×g for 10 min. The supernatant (20 μL) was mixed with an equal part of Tricine sample buffer without reducing agents (Bio-Rad). The unaggregated Aβ42 control was not incubated at 37° C., and mixed with sample buffer (no centrifuging) and stored at −80° C. before it was electrophoresed. Samples (25 μL) were electrophoresed on a 10-20% Tris-Tricine gel, transferred to PVDF membrane, and blocked with 10% nonfat milk in PBS for 30 min. […] The proteins were visualized by Western Blot Chemiluminescence Reagent (NEN Life Science Products, Boston, Mass.).

SH-SY5Y cells = experiment: Cytotoxicity assay in differentiated SH-SY5Y cells treated with AβOs; assay type: cell-based, human; details: AβOs 1 μM
Procedure: Cytotoxicity assay in differentiated SH-SY5Y cells. SH-SY5Y cells were plated at 10,000 cells/well in type 1 collagen coated 96-well plates (Invitrogen) and were differentiated in Opti-MEM supplemented with 2% B-27 (Invitrogen) and 10 μM all-trans-retinoic acid for 7 days. The medium was removed and replaced with fresh maintenance medium. Freshly prepared Aβ42 oligomers in Ham's F-12 medium (1 μM) was added to cells for 48 hrs at 37° C. with or without test compounds. After treatment, 20 uL CellTiter 96 AQueous One Solution (Promega, Madison, Wis.) were added to each well and the plates were incubated at 37° C., 5% CO2 for 2-4 hrs. The plates were read at 490 nm in FlexStation III plate reader (Molecular Devices). Each data point was averaged from six replicates and the experiments were independently repeated at least three times.

AβOs [2] = experiment: Western blot assay of AβOs formation in MC65 cells (6E10 antibody); assay type: cell-based, human; details: 10 μM, 24 hrs after removal of TC
Text: Inhibition of AβOs production by designed BMAOIs. […] The whole cell assay is a composite of not only Aβ oligomerization inhibition but also permeability, stability and other factors will validate the accessibility and function of our BMAOIs. MC65 is a human neuroblastoma cell line that conditionally expresses C99, the C-terminus fragment of APP using tetracycline (TC) as transgene suppressor.^38 Upon removal of TC, these cells can produce intracellular Aβ aggregates including small AβOs. […] All BMAOIs were first evaluated at a single concentration of 10 μM. Candidate compounds with inhibitory activities at this concentration were further evaluated in a dose-dependent manner in the following assays. […]
Western blot assay. […] Pellet was lysed by sonication in 1× lysis buffer (62.5 mM Tris base, pH6.8, 2% SDS, 50 mM DTT, 10% glycerol, 0.1% bromphenol blue, and […] each chymostatin, leupeptin, aprotinin, pepstatin, and soybean trypsin inhibitor) and protein level was determined using Coomassie Protein Assay Reagent (Pierce, Rockford, Ill.). […]

[3] = system: intracellular oxidative stress; experiment: DCFH-DA antioxidation assay in MC65 cells; assay type: cell-based, human; details: −TC, 24 hrs
Procedure: DCFH-DA antioxidation assay. MC65 cells were seeded in 96-well plates (4×10^4 cells/well). After incubation at 37° C., 5% CO2 for 24 hrs, the medium was removed and washed with PBS. Opti-MEM and test compounds were added (+TC, −TC, and blank with only test compounds). MC65 cells were incubated at 37° C., 5% CO2 for 24 hrs. Then DCFH-DA in Opti-MEM was added to each well (final DCFH-DA concentration was 25 uM) and incubate at 37° C., 5% CO2 for 30 min. The medium was removed and replaced with fresh opti-MEM and plates were read for fluorescence intensity at 485 nm (excitation)/530 nm (emission) using FlexStation III plate reader (Molecular Devices).

## CC(=O)N[C@@H](CS)C(=O)O [NAC, N-acetylcysteine]
MC65 cells; −TC
  rescue of MC65 cells from AβOs-induced cytotoxicity: 48%

## COc1cc(/C=C/C(=O)CC(=O)/C=C/c2ccc(O)c(OC)c2)ccc1O [compound 1, curcumin, reference compound]
AβOs [1]
  formation of AβOs (A11 immunocytochemistry): slightly suppressed
Aβ42
  inhibition of oligomerization of Aβ42: inhibited the oligomerization of Aβ42
SH-SY5Y cells; 48 hrs, 16 μM
  protection of SH-SY5Y cell viability from AβOs: not at 16 μM
SH-SY5Y cells; 48 hrs, 2, 4, and 8 μM
  protection of SH-SY5Y cell viability from AβOs: moderate protective activities
AβOs [2]
  inhibition of the formation of AβOs (Western blot): did not exhibit inhibition
MC65 cells; +TC, tested concentrations, 72 hrs, MTS
  toxic effects on MC65 cell viability in the presence of TC: no toxic effects
MC65 cells; −TC, 72 hrs, MTS
  protective effects on MC65 cell viability upon removal of TC: minimal protective effects
[3]
  suppression of intracellular oxidative stress (DCFH-DA fluorescence): suppressed the intracellular oxidative stress in a dose-depndent manner

## Cc1c(C)c2c(c(C)c1O)CCC(C)(C(=O)O)O2 (stereo not shown) [trolox, 6-hydroxy-2,5,7,8-tetramethyl chroman-2-carboxylic acid]
MC65 cells; −TC, 32 μM
  rescue of MC65 cells from AβOs-induced cytotoxicity: completely rescued
